According to patent US20230129359A1, “MUSCARINIC RECEPTOR 4 ANTAGONISTS AND METHODS OF USE” (Neurocrine Biosciences, Inc., priority 2020, published 2023):

These molecules were tested against T1, human M4 receptor (Homo sapiens, UniProt P08173) (assay: Radioligand ([3H]N-methylscopolamine) binding assay, membranes from CHO cells expressing human M4 receptor). Conditions: Ki against human M4 receptor; membranes from CHO cells; tritiated N-methylscopolamine 1.5 nM; read-out: K.
T1 construct: expressed in transfected cells; host or cells: CHO cells
T1 sequence (P08173 1-479): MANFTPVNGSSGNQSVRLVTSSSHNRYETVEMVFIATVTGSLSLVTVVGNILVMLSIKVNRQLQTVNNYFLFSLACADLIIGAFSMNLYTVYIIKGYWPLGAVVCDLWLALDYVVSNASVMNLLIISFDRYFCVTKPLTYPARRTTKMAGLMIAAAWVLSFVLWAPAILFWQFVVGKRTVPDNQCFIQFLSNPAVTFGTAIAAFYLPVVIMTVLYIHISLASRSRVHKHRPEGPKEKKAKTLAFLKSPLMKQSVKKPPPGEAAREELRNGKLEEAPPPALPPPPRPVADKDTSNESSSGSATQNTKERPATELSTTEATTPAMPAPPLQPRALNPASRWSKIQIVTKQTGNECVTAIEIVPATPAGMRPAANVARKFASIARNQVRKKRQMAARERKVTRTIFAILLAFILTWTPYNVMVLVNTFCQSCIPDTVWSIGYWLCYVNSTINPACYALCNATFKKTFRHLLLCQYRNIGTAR
How it was run: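 Competition binding used CHO-cell membranes expressing human M4 with 1.5 nM [3H]N-methylscopolamine and twelve compound concentrations ([…]). Incubation was 90 minutes at 37 °C in 50 mM HEPES, 100 mM NaCl, 5 mM MgCl2, 1 mM EDTA, pH 7.4. Bound ligand was collected by filtration onto PEI-treated glass fibre for Ki.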

| Ki | Structure (SMILES) |
| --- | --- |
| < 10 nM | C[C@@H]1CN(c2ncc(C(F)(F)F)cn2)C[C@H](C)N1C(=O)NC1CC2(C1)CN(Cc1ccc(O)cc1)C2 [Compound 319, (2R,6S)-N-{2-[(4-hydroxyphenyl)methyl]-2-azaspiro[3.3]heptan-6-yl}-2,6-dimethyl-4-[5-(trifluoromethyl)pyrimidin-2-yl]piperazine-1-carboxamide] |
| 100 to 1000 nM | C[C@@H]1CN(c2ncc(C(F)(F)F)cn2)CCN1C(=O)NC1CC2(C1)CN(Cc1ccc(F)cc1)C2 [Compound 266, (2R)-N-{2-[(4-fluorophenyl)methyl]-2-azaspiro[3.3]heptan-6-yl}-2-methyl-4-[5-(trifluoromethyl)pyrimidin-2-yl]piperazine-1-carboxamide] |
| 10 to 100 nM | C[C@@H]1CN(c2cnc3cc(F)ccc3n2)[C@@H](C)CN1C(=O)OC1CC2(C1)CN(Cc1ccccc1)C2 [Compound 363, 2-benzyl-2-azaspiro[3.3]heptan-6-yl (2R,5S)-4-(6-fluoroquinoxalin-2-yl)-2,5-dimethylpiperazine-1-carboxylate] |
| < 10 nM | C[C@@H]1CN(c2ncc3cc(F)ccc3n2)[C@@H](C)CN1C(=O)OC1CC2(C1)CN(Cc1ccccc1)C2 [Compound 484, 2-benzyl-2-azaspiro[3.3]heptan-6-yl (2R,5S)-4-(6-fluoroquinazolin-2-yl)-2,5-dimethylpiperazine-1-carboxylate] |
| 10 to 100 nM | C[C@@H]1CN(c2nc3ncc(C(F)(F)F)cc3s2)[C@@H](C)CN1C(=O)OC1CC2(C1)CN(Cc1ccccc1)C2 [Compound 433, 2-benzyl-2-azaspiro[3.3]heptan-6-yl (2R,5S)-2,5-dimethyl-4-[6-(trifluoromethyl)-[1,3]thiazolo[4,5-b]pyridin-2-yl]piperazine-1-carboxylate] |
| 10 to 100 nM | C[C@@H]1CN(c2cnc(C(F)(F)F)cn2)CCN1C(=O)NC1CC2(C1)CN(Cc1ccc(Cl)cc1)C2 [Compound 261, (2R)-N-{2-[(4-chlorophenyl)methyl]-2-azaspiro[3.3]heptan-6-yl}-2-methyl-4-[5-(trifluoromethyl)pyrazin-2-yl]piperazine-1-carboxamide] |
| 100 to 1000 nM | C[C@@H]1CN(c2cnc(C(F)(F)F)cn2)CCN1C(=O)NC1CC2(C1)CN(Cc1ccccc1)C2 [Compound 22, (2R)-N-{2-benzyl-2-azaspiro[3.3]heptan-6-yl}-2-methyl-4-[5-(trifluoromethyl)pyrazin-2-yl]piperazine-1-carboxamide] |
| 10 to 100 nM | C[C@H]1CN(c2ncc(C(F)(F)F)cn2)CCN1C(=O)NC1CC2(C1)CN(Cc1ccccc1)C2 [Compound 5, (2S)-N-{2-benzyl-2-azaspiro[3.3]heptan-6-yl}-2-methyl-4-[5-(trifluoromethyl)pyrimidin-2-yl]piperazine-1-carboxamide] |
| 10 to 100 nM | C[C@@H]1CN(c2cnc(C(F)(F)F)cn2)CCN1C(=O)OC1CC2(C1)CN(Cc1ccc(F)cc1)C2 [Compound 458, 2-[(4-fluorophenyl)methyl]-2-azaspiro[3.3]heptan-6-yl (2R)-2-methyl-4-[5-(trifluoromethyl)pyrazin-2-yl]piperazine-1-carboxylate] |
| < 10 nM | COC(=O)c1cnc(N2C[C@@H](C)N(C(=O)OC3CC4(C3)CN(Cc3ccccc3)C4)[C@H](C)C2)nc1C(F)(F)F [Compound 171, methyl 2-[(3R,5R)-4-[({2-benzyl-2-azaspiro[3.3]heptan-6-yl}oxy)carbonyl]-3,5-dimethylpiperazin-1-yl]-4-(trifluoromethyl)pyrimidine-5-carboxylate] |
| 10 to 100 nM | C[C@@H]1CN(c2ncc(C(F)(F)F)cn2)C[C@H](C)N1C(=O)OC1CC2(C1)CN(CC1CCCCC1)C2 [Compound 154, 2-(cyclohexylmethyl)-2-azaspiro[3.3]heptan-6-yl (2R,6S)-2,6-dimethyl-4-[5-(trifluoromethyl)pyrimidin-2-yl]piperazine-1-carboxylate] |
| 10 to 100 nM | C[C@@H]1CN(c2nc3ncc(C(F)(F)F)cc3s2)C[C@@H](C)N1C(=O)OC1CC2(C1)CN(Cc1ccccc1)C2 [Compound 432, 2-benzyl-2-azaspiro[3.3]heptan-6-yl (2R,6R)-2,6-dimethyl-4-[6-(trifluoromethyl)-[1,3]thiazolo[4,5-b]pyridin-2-yl]piperazine-1-carboxylate] |
| 100 to 1000 nM | C[C@H]1CN(C(=O)OC2CC3(C2)CN(Cc2ccccc2)C3)CCN1c1ncc(C#N)cn1 [Compound 119, 2-benzyl-2-azaspiro[3.3]heptan-6-yl (3S)-4-(5-cyanopyrimidin-2-yl)-3-methylpiperazine-1-carboxylate] |
| < 10 nM | C[C@@H]1CN(c2ccc(C(F)(F)F)cc2)C[C@H](C)N1C(=O)NC1CC2(C1)CN(Cc1ccccc1)C2 [Compound 47, (2R,6S)-N-{2-benzyl-2-azaspiro[3.3]heptan-6-yl}-2,6-dimethyl-4-[4-(trifluoromethyl)phenyl]pipera-zine-1-carboxamide] |
| < 10 nM | C[C@@H]1CN(c2ncc(C(F)(F)F)cn2)[C@@H](C)CN1C(=O)NC1CC2(C1)CN(Cc1ccccc1)C2 [Compound 1, (2R,5S)—N-{2-Benzyl-2-azaspiro[3.3]heptan-6-yl}-2,5-dimethyl-4-[5-(trifluoromethyl)pyrimidin-2-yl]piperazine-1-carboxamide] |
| < 10 nM | Cc1ccsc1CN1CC2(CC(NC(=O)N3[C@H](C)CN(c4ncc(C(F)(F)F)cn4)C[C@@H]3C)C2)C1 [Compound 338, (2R,6S)-2,6-dimethyl-N-{2-[(3-methylthiophen-2-yl)methyl]-2-azaspiro[3.3]heptan-6-yl}-4-[5-(trifluoromethyl)pyrimidin-2-yl]piperazine-1-carboxamide] |
| 10 to 100 nM | C[C@@H]1CN(c2nc3cc(F)ccc3o2)C[C@H](C)N1C(=O)OC1CC2(C1)CN(Cc1ccccc1)C2 [Compound 441, 2-benzyl-2-azaspiro[3.3]heptan-6-yl (2R,6S)-4-(5-fluoro-1,3-benzoxazol-2-yl)-2,6-dimethylpiperazine-1-carboxylate] |
| 100 to 1000 nM | C[C@@H]1CN(c2cnc(C(F)(F)F)cn2)[C@@H](C)CN1C(=O)OC1CC2(C1)CN(Cc1ccc(S(C)(=O)=O)cc1)C2 [Compound 503, 2-[(4-methanesulfonylphenyl)methyl]-2-azaspiro[3.3]heptan-6-yl (2R,5S)-2,5-dimethyl-4-[5-(trifluoromethyl)pyrazin-2-yl]piperazine-1-carboxylate] |
| 10 to 100 nM | COc1ccc2nc(N3C[C@@H](C)N(C(=O)NC4CC5(C4)CN(Cc4ccccc4)C5)[C@H](C)C3)cnc2c1 [Compound 219, (2R,6R)-N-{2-benzyl-2-azaspiro[3.3]heptan-6-yl}-4-(6-methoxyquinoxalin-2-yl)-2,6-dimethylpiperazine-1-carboxamide] |
| < 10 nM | C[C@@H]1CN(c2nc3ccc(F)cc3s2)C[C@H](C)N1C(=O)OC1CC2(C1)CN(Cc1ccccc1)C2 [Compound 368, 2-benzyl-2-azaspiro[3.3]heptan-6-yl (2R,6S)-4-(6-fluoro-1,3-benzothiazol-2-yl)-2,6-dimethylpiperazine-1-carboxylate] |
| 10 to 100 nM | COc1ccc2nc(N3C[C@@H](C)N(C(=O)OC4CC5(C4)CN(Cc4ccc(F)cc4)C5)[C@@H](C)C3)cnc2c1 [Compound 395, 2-[(4-fluorophenyl)methyl]-2-azaspiro[3.3]heptan-6-yl (2R,6S)-4-(6-methoxyquinoxalin-2-yl)-2,6-dimethylpiperazine-1-carboxylate] |
| 10 to 100 nM | C[C@@H]1CN(c2cnc(OC(F)(F)F)cn2)[C@H](C)CN1C(=O)OC1CC2(C1)CN(Cc1ccccc1)C2 [Compound 205, 2-benzyl-2-azaspiro[3.3]heptan-6-yl (2R,5R)-2,5-dimethyl-4-[5-(trifluoromethoxy)pyrazin-2-yl]piperazine-1-carboxylate] |
| 100 to 1000 nM | C[C@@H]1CN(c2ncc3ccccc3n2)C[C@H](C)N1C(=O)OC1CC2(C1)CN(Cc1ccccc1)C2 [Compound 377, 2-benzyl-2-azaspiro[3.3]heptan-6-yl (2R,6S)-2,6-dimethyl-4-(quinazolin-2-yl)piperazine-1-carboxylate] |
| < 10 nM | [2H]c1c([2H])c([2H])c(C([2H])([2H])N2CC3(CC(OC(=O)N4[C@H](C)CN(c5ncc(C(F)(F)F)cn5)C[C@@H]4C)C3)C2)c([2H])c1[2H] [Compound 387, 2-[(^2H5)phenyl(^2H2)methyl]-2-azaspiro[3.3]heptan-6-yl (2R,6S)-2,6-dimethyl-4-[5-(trifluoromethyl)pyrimidin-2-yl]piperazine-1-carboxylate] |
| < 10 nM | C[C@@H]1CN(c2ncc(OCC3CC3)cn2)C[C@H](C)N1C(=O)OC1CC2(C1)CN(Cc1ccccc1)C2 [Compound 499, 2-benzyl-2-azaspiro[3.3]heptan-6-yl (2R,6S)-4-[5-(cyclopropylmethoxy)pyrimidin-2-yl]-2,6-dimethylpiperazine-1-carboxylate] |
| 100 to 1000 nM | C[C@@H]1CN(c2cnc(C(F)(F)F)cn2)C[C@H](C)N1C(=O)NCC1CC2(C1)CN(Cc1ccccc1)C2 [Compound 67, (2R,6S)-N-({2-benzyl-2-azaspiro[3.3]hpetan-6-yl}methyl)-2,6-dimethyl-4-[5-(trifluoromethyl)pyrazin-2-yl]piperazine-1-carboxamide] |
